Our source for the IC50 values is patent US6831199B1, “Pyrimidine compounds and derivatives thereof” (G. D. Searle & Co., priority 1995, dated 2004).

Each structure is given as a SMILES string. Structures can show the parent of a compound that is named as a salt.

The subject of one assay is M21 human melanoma cells. As to the kind of experiment: M21 melanoma cell adhesion assay (αvβ3-dependent adhesion to human fibrinogen-coated plates). The assay is classed as cell-based. The note with it: Homo sapiens, M21; read-out: M21 Melanoma Cells IC50. The protocol:
M21 MELANOMA CELL ADHESION ASSASY
This assay involves an αvβ3-dependent adhesion of M21 human melanoma cells to human fibrinogen-coated plastic tissue culture dishes.
Fibrinogen was purified from human plasma. Fibronectin and plasminogen were eliminated from the preparation by passing the sample over gelatin-sepharose 4B and lysine-sepharose 4B resins, respectively. The fibrinogen is diluted to 10 μg/mL in coating buffer ([…] Tris-HCl, 150 mM NaCl, pH 7.4). 100 μL of diluted fibrinogen is added to each well of a 96-well Immulon 2 microtiter plate (Dynatech; Chantilly, Va.) and allowed to coat overnight at 4° C. Plates are blocked with 1% BSA (Miles/Pentex; Kankakee, Ill.) in adhesion buffer (Hank's balanced salt solution without Ca^++ or Mg^++ [HBSS−−], 50 mM Hepes, 1 mg/mL BSA, pH 7.4) for 1 hour at 37° C.
M21 human melanoma cells were provided by Dr. J. Smith, La Jolla Cancer Research Institute. M21 cells are harvested from tissue culture flasks by washing with HBSS−− and adding cell dissociation solution (Sigma) and incubating for 5 minutes at 37° C. Harvested cells are washed 3 times with adhesion assay buffer containing 200 μM Mn^++. Cells are counted and suspended to a density of 2×10^6/mL in adhesion assay buffer containing 200 μM Mn^++. M21 cells are pre-incubated with antagonists of αvβ3 for 30 minutes at room temperature. Following the pre-incubation, the solutions containing a mixture of cells and antagonists are added to each well of the microtiter plate and allowed to bind for 30 minutes at 37° C.
Following adhesion, plates are gently washed 3 times with 200 μL of wash buffer (50 mM Tris-HCl, 150 mM NaCl, pH 7.4) using large bore pipet tips. Plates are briefly blotted dry and 100 μL of cell lysis buffer (50 mM sodium acetate, pH 5.0, 0.5% Triton X-100, 0.3 mg/mL p-nitrophenyl phosphate [Sigma] is added to each well. Plates are incubated for 60 minutes at 37° C. and 50 μL of 1N NaOH is added to stop the reaction. The absorbance of the wells at […] is read using an automatic plate reader.
As a reminder, the IC50 is the midpoint of a concentration-inhibition curve. On to `N=C(N)Nc1cccc(C(=O)NCC(=O)NC(CC(=O)O)c2ccccc2)c1` (racemic) [Example 4, (±)β-[[2-[[[3-[(aminoiminomethyl)amino]phenyl]carbonyl]amino]acetyl]amino]benzene-propanoic acid, trifluoroacetate salt], for which the IC50 came to 3.3 nM.

Turning to `O=C(O)CC(NC(=O)CNC(=O)c1cccc(NC(=O)NCc2ccccc2)c1)c1cccnc1` (racemic) [Example 47, (±)β-[[2-[[[3-[[[(phenylmethyl)amino]carbonyl]amino]phenyl]carbonyl]amino]acetyl]amino]pyridine-3-propanoic acid, hydrochloride salt], the IC50 is 1.18 nM.

For `O=C(O)CC(NC(=O)CNC(=O)c1cccc(NC2=NCCCCC2)c1)c1ccccc1` (racemic) [Example 15, (±)β-[[2-[[[3-[(3,4,5,6-tetrahydro-2H-azepin-7-yl)amino]phenyl]carbonyl]amino]acetyl]amino]benzenepropanoic acid, trifluoroacetate salt], the IC50 stood at 202 nM.

As to `N=C(N)Nc1cc(C(=O)NCC(=O)NC(CC(=O)O)c2cccnc2)c2ccccc2c1` (racemic) [Example 8, (±)β-[[2-[[[3-[(aminoiminomethyl)amino]naphthalen-1-yl]carbonyl]amino]acetyl]amino]pyridine-3-propanoic acid, bis(trifluoroacetate)salt], the IC50 was 0.28 nM.

As for `N=C(N)Nc1cccc(C(=O)NCC(=O)NC(CC(=O)O)c2ccoc2)c1` (racemic) [Example 52, (±)β-[[2-[[[3-[(aminoiminomethyl)amino]phenyl]carbonyl]amino]acetyl]amino]furan-3-propanoic acid, trifluoroacetate salt], the IC50 is 11.7 nM.

Regarding `NC(=S)Nc1cccc(C(=O)NCC(=O)NC(CC(=O)O)c2cccnc2)c1` (stereo not drawn) [Example 114, β-[[2-[[[3-[(aminothioxomethyl)amino]phenyl]carbonyl]amino]acetyl]amino]pyridine-3-propanoic acid, trifluoroacetate salt], the IC50 came to 200 nM.

Take `N=C(N)Nc1cccc(C(=O)NCC(=O)N[C@@H](CC(=O)O)CS(=O)(=O)c2ccccc2C(=O)O)c1` [Example 71, 2-[[2S-[[2-[[[3-[(aminoiminomethyl)amino]phenyl]carbonyl]amino]acetyl]amino]-2-(carboxymethyl)ethyl]sulfonyl]benzoic acid, TFA salt]: the IC50 turned out to be 1040 nM.

Turning to `O=C(O)CC(NC(=O)CNC(=O)c1cccc(NC2=NCCC2)c1)c1cccnc1` (stereo not drawn) [Example 17, β-[[2-[[[3-[(3,4-dihydro-2H-pyrrol-5-yl)amino]phenyl]carbonyl]amino]acetyl]amino]pyridine-3-propanoic acid, bis(trifluoroacetate)salt], the IC50 stood at 3.64 nM.

As for `O=C(O)CC(NC(=O)CNC(=O)c1cccc(NC2=NCCCCC2)c1)c1ccc2c(c1)OCO2` (racemic) [Example 14, (±)β-[[2-[[[3-[(3,4,5,6-tetrahydro-2H-azepin-7-yl)amino]phenyl]carbonyl]amino]acetyl]amino]-1,3-benzodioxole-5-propanoic acid, TFA salt], the IC50 amounted to 5.42 nM.

For `N=C(N)Nc1cccc(C(=O)NCC(=O)NC(CC(=O)O)c2ccc3ccccc3c2)c1` (racemic) [Example 56, (±)β-[[2-[[[3-[(aminoiminomethyl)amino]phenyl]carbonyl]amino]acetyl]amino]naphthalene-2-propanoic acid, trifluoroacetate salt], the IC50 stood at 6.87 nM.

Turning to `N=C(N)Nc1cccc(C(=O)NCC(=O)NC(CC(=O)O)c2cnc3ccccc3c2)c1` (stereo not drawn) [Example 99, β-[[2-[[[3-[(aminoiminomethyl)amino]phenyl]carbonyl]amino]acetyl]amino]quinoline-3-propanoic acid, bis(trifluoroacetate)salt], the IC50 was 0.49 nM.

Regarding `Cc1ccc(S(=O)(=O)CCC(CC(=O)O)NC(=O)CNC(=O)c2cccc(NC(=N)N)c2)cc1` (racemic) [Example 67, (±)3-[[2-[[[3-[(aminoiminomethyl)amino]phenyl]carbonyl]amino]acetyl]amino]-5-[(4-methylphenyl)sulfonyl]pentanoic acid, trifluoroacetate salt], the IC50 worked out at 4.08 nM.

Turning to `N=C(N)Nc1cccc(C(=O)NCC(=O)NC(CC(=O)O)c2cc(C(F)(F)F)cc(C(F)(F)F)c2)c1` (racemic) [Example 36, (±)β-[[2-[[[3-[(aminoiminomethyl)amino]phenyl]carbonyl]amino]acetyl]amino]-3,5-bis(trifluoromethyl)benzenepropanoic acid, trifluoroacetate salt], the IC50 was 143 nM.

Regarding `N=C(N)Nc1cccc(C(=O)NCC(=O)NC(CC(=O)O)c2cccs2)c1` (racemic) [Example 61, (±)β-[[2-[[[3-[(aminoiminomethyl)amino]phenyl]carbonyl]amino]acetyl]amino]thiophene-2-propanoic acid, trifluoroacetate salt], the IC50 came to 228 nM.

For the compound `Cc1ccc(C(=O)NCC(=O)NC(CC(=O)O)c2cccnc2)cc1NC(=N)N` (racemic) [Example 83, (±)β-[[2-[[[3-[(aminoiminomethyl)amino]-4-methylphenyl]carbonyl]amino]acetyl]amino]pyridine-3-propanoic acid, bis(trifluoroacetate)salt], the IC50 came out at 11 nM.

Consider `N=C(N)Nc1cccc(C(=O)NCC(=O)NC(CC(=O)O)c2ccsc2)c1` (racemic) [Example 59, (±)β-[[2-[[[3-[(aminoiminomethyl)amino]phenyl]carbonyl]amino]acetyl]amino]thiophene-3-propanoic acid, trifluoroacetate salt], for which the IC50 came to 24.3 nM.

Take `O=C(O)CC(NC(=O)CNC(=O)c1cccc(NC2=NCCCCC2)c1)c1cccnc1` (racemic) [Example 12, (±)β-[[2-[[[3-[(3,4,5,6-tetrahydro-2H-azepin-7-yl)amino]phenyl]carbonyl]amino]acetyl]amino]pyridine-3-propanoic acid, bis(trifluoroacetate)salt]: the 50% inhibitory concentration (IC50) was determined as 9.32 nM.

For `O=C(O)CC(NC(=O)CNC(=O)c1cccc(NC2=NCCN2)c1)c1cccnc1` (racemic) [Example 10, (±)β-[[2-[[[3-[(4,5-dihydro-1H-imidazol-2-yl)amino]phenyl]carbonyl]amino]acetyl]amino]pyridine-3-propanoic acid, bis(trifluoroacetate)salt], the IC50 came to 1.82 nM.

Take `NC(=O)Nc1cccc(C(=O)NCC(=O)NC(CC(=O)O)c2cccnc2)c1` (stereo not drawn) [Example 46, β-[[2-[[[3-(aminocarbonylamino)phenyl]carbonyl]amino]acetyl]amino]pyridine-3-propanoic acid, hydrochloride salt]: the half-inhibitory concentration (IC50) turned out to be 147 nM.

With `N=C(NCc1ccccc1)Nc1cccc(C(=O)NCC(=O)NC(CC(=O)O)c2cccnc2)c1` (racemic) [Example 24, (±)β-[[2-[[[3-[[imino[(phenylmethyl)amino]methyl]amino]phenyl]carbonyl]amino]acetyl]amino]pyridine-3-propanoic acid, bis(trifluoroacetate)salt], the IC50 was determined as 12.7 nM.

As to `N=C(N)Nc1cccc(C(=O)NCC(=O)NC(CCS(=O)(=O)c2ccccc2C(=O)O)CC(=O)O)c1` (racemic) [60(C), (±)2-[3-[[2-[[[3-[(aminoiminomethyl)amino]phenyl]carbonyl]amino]acetyl]amino]-4-carboxybutyl]sulfonyl]benzoic acid, trifluoroacetate], the half-maximal inhibitory concentration (IC50) came to 0.74 nM.

As for `Cc1ccc(O)c(C(CC(=O)O)NC(=O)CNC(=O)c2cccc(NC(=N)N)c2)c1` (racemic) [Example 88, (±)β-[[2-[[[3-[(aminoiminomethyl)amino]phenyl]carbonyl]amino]acetyl]amino]-2-hydroxy-5-methylbenzenepropanoic acid, trifluoroacetate salt], the IC50 was 52.3 nM.

`Cc1ccc(S(=O)(=O)NCC(CC(=O)O)NC(=O)CNC(=O)c2cccc(NC(=N)N)c2)cc1` (stereo not shown) [Example 65, 3-[[2-[[[3-[(aminoiminomethyl)amino]phenyl]carbonyl]amino]acetyl]amino]-4-[[(4-methylphenyl)sulfonyl]amino]butanoic acid, trifluoroacetate salt]: the IC50 amounted to 13.8 nM.

The same assay, now with this note: hydrochloride salt; read-out: M21 Melanoma Cells IC50.
As for `C#C[C@H](CC(=O)O)NC(=O)CNC(=O)c1cccc(NC(=N)N)c1` [Example 45, 3S-[[2-[[[3-[(aminoiminomethyl)amino]phenyl]carbonyl]amino]acetyl]amino]-4-pentynoic acid, hydrochloride salt], the IC50 was 2.54 nM.

As to `C#C[C@@H](CC(=O)O)NC(=O)CNC(=O)c1cccc(NC(=N)N)c1` [Example 43, 3R-[[2-[[[(3-[(aminoiminomethyl)amino]phenyl]carbonyl]amino]acetyl]amino]-4-pentynoic acid, hydrochloride salt], the IC50 stood at 188 nM.
